Like-named read-outs stand apart in the source and are kept apart here.
Columns and labels:
[1] = tested on: CRABPII protein in primary dermal fibroblasts; assay: Fibroblast expression of CRABPII (Western blot); assay type: cell-based; details: 24 hours; for Band Intensity (arbitrary units): CRABPII band; for Relative band intensity: relative to vehicle
Description: Cells were then plated out in 12 well plates at 38,000 cells per well, and incubated for 24 hours. […] Cells were treated with vehicle (ethanol) or 22R hydroxycholesterol and/or retinoic acid in 1 ml fresh medium (DMEM plus 10% FCS). Treatments were prepared as fresh 1000× stocks and diluted into medium immediately before addition to the cells. […] Cells were washed in 1 ml phosphate buffer saline and trypsinised from the plates. Cells were pelleted at 13000 g for 5 min and washed with 1 ml PBS. Cells were re-pelleted and re-suspended in protein lysis buffer (4M urea, 0.5% SDS, 10 mM EDTA in PBS with protease inhibitor cocktail). Samples were equilibrated for total protein content and the proteins separated by SDS-PAGE and blotted to nitrocellulose. Membranes were probed with antisera against the CRABPII protein and detected by ECL-plus. Intensity of signal was captured using a STORM scanner and quantified using ImageQuant 5.2.

[2] = tested on: RAR reporter gene construct (RAREs) with over-expressed RARγ, RXRα and LXRα in Cos-7 cells; details: 24 hours, fold activation over vehicle (ethanol) control

Compound	% change from vehicle ([1]; 5 μM 22R-hydroxycholesterol)	Band Intensity (arbitrary units) ([1]; 5 μM 22R-hydroxycholesterol)	Relative band intensity ([1]; 5 μM 22R-hydroxycholesterol)	Fold activity +/− sd (n = 3) ([2]; 35 μM 22R hydroxycholesterol)	% change from vehicle ([1]; 1 nM all-trans retinoic acid)	Band Intensity (arbitrary units) ([1]; 1 nM all-trans retinoic acid)	Relative band intensity ([1]; 1 nM all-trans retinoic acid)	Fold activity +/− sd (n = 3) ([2]; 0.1 μM all-trans retinoic acid)
CC(C)CC[C@@H](O)[C@@H](C)[C@H]1CC[C@H]2[C@@H]3CC=C4C[C@@H](O)CC[C@]4(C)[C@H]3CC[C@]12C [22R hydroxycholesterol]	−0.8%	167664.2 arbitrary units	0.992	1.209 +/− 0.030 fold	–	–	–	–
CC1=C(/C=C/C(C)=C/C=C/C(C)=C/C(=O)O)C(C)(C)CCC1 [all-trans retinoic acid]	–	–	–	–	+35.3%	228603.88 arbitrary units	1.353	1.733 +/− 0.445 fold

Source: patent US8318710B2, “Skin treatments” (priority 2003, dated 2012)
